Reference: patent US12564596B2, “Agents and methods for modulating pathogen activity” (Griffith University, priority 2018, dated 2026)

Test system: N. gonorrhoeae strains
Assay: Well diffusion assay in the absence of human cells
Parameters: species or system Neisseria gonorrhoeae
Settings: GC-agar, overnight 37° C.; 100 μM to 100 μM [sic]
Protocol: (§1) FIG. 22 is a graphical representation showing the effect of carbamazepine on N. gonorrhoeae in the absence of human cells. Well diffusion assays were performed in which N. gonorrhoeae strains were spread uniformly across the surface of GC-agar plates at a culture density of 10^7 bacterial per mL. Wells were then punctured within the agar surface to which carbamazepine (Cz; […], as noted), 0.2 μg/mL ceftriaxone (Cfx), 10 μg/mL ciprofloxacin (Cip), or 1% DMSO (vehicle control) were added. […] For agar plates in which a ZOI was not visible, data were recorded as the diameter of the well (6 mm), as indicated. Assays were performed in triplicate on 3 separate occasions. Data are presented as the mean and variance of the average values obtained for each assay; statistical significance was determined using a Student's t-test. […] This is consistent with a CR3-dependent, host-mediated mechanism of killing.
as §1, with “23” for “22”, “methyldopa” for “carbamazepine”, “methyldopa (Md;” for “carbamazepine (Cz;”
FIG. 24 is a graphical representation showing the effect of flufenamic acid on N. gonorrhoeae in the absence of human cells. Well diffusion assays were performed in which N. gonorrhoeae strains were spread uniformly across the surface of GC-agar plates at a culture density of 10^7 bacterial per mL. Wells were then punctured within the agar surface to which flufenamic acid ([…], as noted), 0.2 μg/mL ceftriaxone, 10 μg/mL ciprofloxacin, or 1% DMSO (vehicle control) were added. […] For agar plates in which a ZOI was not visible, data were recorded as the diameter of the well (6 mm), as indicated. Assays were performed in triplicate on 3 separate occasions. Data are presented as the mean and variance of the average values obtained for each assay; statistical significance was determined using a Student's t-test.

NC(=O)N1c2ccccc2C=Cc2ccccc21 [carbamazepine, 5H-dibenzo[b,f]azepine-5-carboxamide]
effect on N. gonorrhoeae in the absence of human cells (zone of inhibition): no effect
